System: NCI-H196 SCLC complex tumor spheroid viability
Assay: Anticancer human tumor NCI-H196 cell line growth inhibition;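 further: spheroids exposed to compounds for 7 days before readout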;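 on viability, T/C: 100% = DMSO vehicle control wells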
Conditions: for IC50: curve of first compound; for viability, T/C: stronger effect = lower value
Outline: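 Complex spheroids of malignant cells with endothelial cells and mesenchymal stem cells; agents alone or combined, from near clinical Cmax (or 10 microM if unknown) down in half-log steps, 0.25% DMSO final.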

[1] = second compound 0.003 µM, first compound 0.0316 µM
[2] = second compound 0.003 µM, first compound 0.1 µM
[3] = second compound 0.003 µM, first compound 0.316 µM
[4] = second compound 0.003 µM, first compound 1 µM
[5] = second compound 0.003 µM, first compound 3.16 µM
[6] = second compound 0.003 µM, first compound 10 µM
[7] = second compound 0.00949 µM, first compound 0.0316 µM
[8] = second compound 0.00949 µM, first compound 0.1 µM
[9] = second compound 0.00949 µM, first compound 0.316 µM
[10] = second compound 0.00949 µM, first compound 1 µM
[11] = second compound 0.00949 µM, first compound 3.16 µM
[12] = second compound 0.00949 µM, first compound 10 µM
[13] = second compound 0.03 µM, first compound 0.0316 µM
[14] = second compound 0.03 µM, first compound 0.1 µM
[15] = second compound 0.03 µM, first compound 0.316 µM
[16] = second compound 0.03 µM, first compound 1 µM
[17] = second compound 0.03 µM, first compound 3.16 µM
[18] = second compound 0.03 µM, first compound 10 µM
[19] = second compound 0.0949 µM, first compound 0.0316 µM
[20] = second compound 0.0949 µM, first compound 0.1 µM
[21] = second compound 0.0949 µM, first compound 0.316 µM
[22] = second compound 0.0949 µM, first compound 1 µM
[23] = second compound 0.0949 µM, first compound 3.16 µM
[24] = second compound 0.0949 µM, first compound 10 µM
[25] = second compound 0.3 µM, first compound 0.0316 µM
[26] = second compound 0.3 µM, first compound 0.1 µM
[27] = second compound 0.3 µM, first compound 0.316 µM
[28] = second compound 0.3 µM, first compound 1 µM
[29] = second compound 0.3 µM, first compound 3.16 µM
[30] = second compound 0.3 µM, first compound 10 µM

| SMILES | IC50 (second compound 0.003 µM) | IC50 (second compound 0.00949 µM) | IC50 (second compound 0.03 µM) | IC50 (second compound 0.0949 µM) | IC50 (second compound 0.3 µM) | viability, T/C [1] | viability, T/C [2] | viability, T/C [3] | viability, T/C [4] | viability, T/C [5] | viability, T/C [6] | viability, T/C [7] | viability, T/C [8] | viability, T/C [9] | viability, T/C [10] | viability, T/C [11] | viability, T/C [12] | viability, T/C [13] | viability, T/C [14] | viability, T/C [15] | other results |
| --- | --- | --- | --- | --- | --- | --- | --- | --- | --- | --- | --- | --- | --- | --- | --- | --- | --- | --- | --- | --- | --- |
| CC1COCCN1c1cc(-c2ccnn2C)c2ccnc(-c3ccn[nH]3)c2n1 (stereo not given) + CC[C@@]1(O)C(=O)OCc2c1cc1n(c2=O)Cc2cc3c(CN(C)C)c(O)ccc3nc2-1 | 4.08 µM | 2.26 µM | 4.78 µM | 4.15 µM | 0.334 µM | 83% | 75.1% | 68.1% | 57% | 50.6% | 47.3% | 75.4% | 69.9% | 67% | 51.4% | 52% | 45% | 70.8% | 64.9% | 60.9% | viability, T/C [16]: 57.6%; viability, T/C [17]: 50.2%; viability, T/C [18]: 47.6%; viability, T/C [19]: 62.8%; viability, T/C [20]: 61.5%; viability, T/C [21]: 61.7%; viability, T/C [22]: 57.1%; viability, T/C [23]: 50.7%; viability, T/C [24]: 44.3%; viability, T/C [25]: 55.9%; viability, T/C [26]: 51.7%; viability, T/C [27]: 48.4%; viability, T/C [28]: 49.1%; viability, T/C [29]: 43.4%; viability, T/C [30]: 38.5% |
| COc1cc(C)[nH]c(=O)c1CN1CCc2c(Cl)cc(C(OC)C3COC3)c(Cl)c2C1=O (stereo not given) + CC[C@@]1(O)C(=O)OCc2c1cc1n(c2=O)Cc2cc3c(CN(C)C)c(O)ccc3nc2-1 | > 10 µM | > 10 µM | > 10 µM | > 10 µM | > 10 µM | 108% | 105% | 99.9% | 101% | 103% | 97.8% | 102% | 98.6% | 91.5% | 93.3% | 99.6% | 106% | 99.3% | 93.5% | 97.5% | viability, T/C [16]: 89.2%; viability, T/C [17]: 95.7%; viability, T/C [18]: 99.3%; viability, T/C [19]: 106%; viability, T/C [20]: 109%; viability, T/C [21]: 99.8%; viability, T/C [22]: 102%; viability, T/C [23]: 94.2%; viability, T/C [24]: 106%; viability, T/C [25]: 104%; viability, T/C [26]: 101%; viability, T/C [27]: 99.8%; viability, T/C [28]: 102%; viability, T/C [29]: 95.8%; viability, T/C [30]: 88.7% |
| COc1ccc([C@@H](O)c2cc(-c3ncnc4cc(N5CCOCC5)ccc34)c(F)cc2Cl)nn1 + CC[C@@]1(O)C(=O)OCc2c1cc1n(c2=O)Cc2cc3c(CN(C)C)c(O)ccc3nc2-1 | > 10 µM | > 10 µM | 5.95 µM | 2.63 µM | 2.61 µM | 100% | 99.6% | 90.8% | 82.3% | 69.2% | 55.2% | 98% | 97.1% | 95.5% | 88.9% | 65.7% | 52.8% | 93.5% | 92.3% | 88.1% | viability, T/C [16]: 72.5%; viability, T/C [17]: 58.6%; viability, T/C [18]: 43.5%; viability, T/C [19]: 99.8%; viability, T/C [20]: 102%; viability, T/C [21]: 93.5%; viability, T/C [22]: 70.2%; viability, T/C [23]: 46.2%; viability, T/C [24]: 39.5%; viability, T/C [25]: 107%; viability, T/C [26]: 104%; viability, T/C [27]: 88.8%; viability, T/C [28]: 71.9%; viability, T/C [29]: 43.1%; viability, T/C [30]: 37.1% |
| [2H]c1nc(C)nc([2H])c1-c1cc(NC[C@@H](C)c2cccc3c(C(=O)NC)ccnc23)ncn1 + CC[C@@]1(O)C(=O)OCc2c1cc1n(c2=O)Cc2cc3c(CN(C)C)c(O)ccc3nc2-1 | > 10 µM | > 10 µM | > 10 µM | > 10 µM | > 10 µM | 103% | 104% | 92.5% | 97.2% | 106% | 100% | 100% | 96.5% | 91.8% | 95.5% | 99.7% | 100% | 96.8% | 102% | 95.4% | viability, T/C [16]: 93.4%; viability, T/C [17]: 95.5%; viability, T/C [18]: 94.6%; viability, T/C [19]: 99.4%; viability, T/C [20]: 102%; viability, T/C [21]: 107%; viability, T/C [22]: 102%; viability, T/C [23]: 100%; viability, T/C [24]: 102%; viability, T/C [25]: 109%; viability, T/C [26]: 103%; viability, T/C [27]: 94.8%; viability, T/C [28]: 105%; viability, T/C [29]: 104%; viability, T/C [30]: 100% |

Reference: PubChem BioAssay AID1845208 (Molecular Pharmacology Branch, DTP, NCI, 2023)
